Source: BindingDB's records for doi:10.1021/jm100571n (Novartis Institutes For Biomedical Research, 2010)
pIC50: −log10 of the molar value.

Columns and labels:
[1] = target: Tyrosine-protein kinase SYK (Homo sapiens) (UniProt P43405); experiment: Inhibition of SYK
[2] = target: 3-phosphoinositide-dependent protein kinase 1 (Homo sapiens) (UniProt O15530); experiment: Inhibition of PDK1

| pIC50 [1] | pIC50 [2] | Structure (SMILES) |
| --- | --- | --- |
| < 5.00 | < 5.00 | CC(C)c1n[nH]c(Cl)c1-c1ccnc(Nc2ccc(N3CCC(N(C)C)CC3)cn2)n1 [4-(5-Chloro-3-isopropyl-1H-pyrazol-4-yl)-N-(5-(4-(dimethylamino)piperidin-1-yl)pyridin-2-yl)pyrimidin-2-amine] |
| < 5.00 | < 5.00 | CC(C)c1[nH]nc(C(F)(F)F)c1-c1ccnc(Nc2ccc(N3CCC(N(C)C)CC3)cn2)n1 [N*6'*-[4-(5-Isopropyl-3-trifluoromethyl-1H-pyrazol-4-yl)-pyrimidin-2-yl]-N*4*,N*4*-dimethyl-3,4,5,6-tetrahydro-2H-[1,3']-bipyridinyl-4,6'-diamine] |
